Entries after “also recorded” stand apart in the source; their conditions may differ.
Legend:
[1] = Storage of forms of Compound 36 at 40° C./75% RH in open vials, XRPD; assay type: physicochemical; details: open vial
Method: Form A was stored at 40° C./75% RH, in an open vial. […] Therefore, Form A is stable to exposure to elevated temperature and humidity for up to 2 weeks and no evidence of a hydrated form was observed.
One sample of each of the new forms (Forms B, C, D, E, E+extra peaks, F, G and H) was analysed by ^1H NMR, TGA, DSC and stored at 40° C./75% RH. Results are summarised in Table E with Form A for comparison.

[2] = Solubility assessment of Compound 36 Form A in solvents at 50° C.; assay type: physicochemical; parameters: key to Solubility (dissolution in solvent): ✓: material dissolved at 50° C.; x: material did not dissolve; ?: partial dissolution
Method: Compound 36 (Form 1, approximately 30 mg) was weighed into 2 ml glass vials and was treated with aliquots of solvent. The samples were stirred at 50° C., 400 rpm, for approximately 10 minutes between addition of aliquots of solvent. Solvent was added until a clear solution was formed or a maximum of 60 volumes (1.8 ml) of solvent was reached.
Samples that were solutions (or close to dissolution, sample in DCM) were cooled to 5° C. at 0.1° C./min and were stirred overnight. After cooling, the samples that contained solids were filtered using PTFE frits, dried under suction for approximately 30 minutes and were analysed by XRPD.
Samples that were suspensions in 60 volumes of solvent were matured (shaken in cycles of 4 hours at 50° C./4 hours at RT). After 5 days, samples were filtered using PTFE frits, dried under suction for approximately 30 minutes and were analysed by XRPD.

[3] = Competitive suspension equilibration of all known forms of Compound 36 in surfactant buffers; assay type: physicochemical; details: 20° C.
Method: Equimolar composites of the forms of Compound 36 were stirred in each surfactant buffer configuration as follows.
Equimolar admixtures of each form and the amorphous phase were prepared and suspended in the appropriate surfactant buffer configuration at the dose relevant concentration of 5 mg/ml and stirred at 20° C. for 13 days. Stirring was suspended, the slurries were centrifuged, supernatant decanted and the pellets were dried under reduced pressure and analysed.
All known forms of Compound 36 were combined in approximately equimolar proportions. Each composite was suspended in Tween/Span and Tween 80 buffers (5 mg/ml concentration) in two vessels and stirred at 20° C. […] Therefore, order of succession in formulation vehicles under ambient storage supported Form A as the preferred form.

[4] = Solubility assessment of Compound 36 Form A in solvents at 50° C.; assay type: physicochemical; details: acetone and ethanol
[5] = target: human TMEM16A (TMEM16Aabc variant) (Homo sapiens, UniProt Q5XXA6, DEL476-501, form not given); test: Automated whole-cell patch clamp (Qpatch) TMEM16A potentiator assay in FRT cells stably expressing human TMEM16A; assay type: cell-based
Sequence of human TMEM16A (TMEM16Aabc variant) (Q5XXA6 with tags, fused parts or gaps DEL476-501): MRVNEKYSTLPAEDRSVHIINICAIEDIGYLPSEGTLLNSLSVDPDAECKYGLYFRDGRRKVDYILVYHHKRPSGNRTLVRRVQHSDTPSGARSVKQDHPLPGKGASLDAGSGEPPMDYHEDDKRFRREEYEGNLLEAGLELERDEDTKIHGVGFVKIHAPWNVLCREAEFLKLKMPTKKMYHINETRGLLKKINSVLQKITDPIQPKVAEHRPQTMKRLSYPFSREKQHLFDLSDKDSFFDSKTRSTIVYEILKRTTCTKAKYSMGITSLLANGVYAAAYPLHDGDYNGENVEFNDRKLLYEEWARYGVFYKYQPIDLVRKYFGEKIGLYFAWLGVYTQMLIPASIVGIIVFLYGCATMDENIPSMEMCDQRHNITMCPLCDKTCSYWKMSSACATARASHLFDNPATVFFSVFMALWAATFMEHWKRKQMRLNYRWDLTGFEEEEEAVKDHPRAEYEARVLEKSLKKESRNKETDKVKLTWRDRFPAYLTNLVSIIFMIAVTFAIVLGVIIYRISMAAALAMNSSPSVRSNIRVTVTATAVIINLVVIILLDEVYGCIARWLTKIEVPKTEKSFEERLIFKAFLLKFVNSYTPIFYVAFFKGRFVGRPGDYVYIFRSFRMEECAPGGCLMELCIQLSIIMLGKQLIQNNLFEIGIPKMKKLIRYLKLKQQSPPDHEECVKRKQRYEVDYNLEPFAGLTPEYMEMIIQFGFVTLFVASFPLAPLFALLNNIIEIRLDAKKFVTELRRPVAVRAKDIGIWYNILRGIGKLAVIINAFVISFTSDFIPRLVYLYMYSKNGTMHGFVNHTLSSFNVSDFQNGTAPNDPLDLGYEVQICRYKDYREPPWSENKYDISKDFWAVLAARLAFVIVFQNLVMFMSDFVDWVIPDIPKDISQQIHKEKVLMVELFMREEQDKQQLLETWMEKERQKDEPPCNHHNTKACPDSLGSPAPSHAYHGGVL
In short: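 Potentiation was read as the rise in peak +70 mV current over baseline (%), from cumulative 5-min additions of compound. Recordings used whole-cell automated patch of FRT cells stably carrying human TMEM16Aabc, with pipette Ca2+ buffered to give ~20% maximal current. EC50 and efficacy came from concentration-response fits.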

Compound: C#CC(C)(C)NC(=O)c1cc(NC(=O)Cc2cc(Cl)ccc2O)ccn1 [Compound 36 Form A, 4-[[2-(5-Chloro-2-hydroxy-phenyl)acetyl]amino]-N-(1,1-dimethylprop-2-ynyl)pyridine-2-carboxamide]
- Storage at 40° C./75% RH (change of form by XRPD) ([1]; 14 days (2 weeks)): no change in form was detected; also recorded: No change (14 days)
- Solubility (dissolution in solvent) ([2]; 2-Propanol, 5 vol, 50° C.): x
- Solubility (dissolution in solvent) ([2]; 2-Propanol, 10 vol, 50° C.): x
- Solubility (dissolution in solvent) ([2]; 2-Propanol, 30 vol, 50° C.): ✓
- Solubility (dissolution in solvent) ([2]; 5% aqueous ACN, 5 vol, 50° C.): x
- Solubility (dissolution in solvent) ([2]; 5% aqueous ACN, 20 vol, 50° C.): ✓
- Solubility (dissolution in solvent) ([2]; 20% aqueous ACN, 5 vol, 50° C.): x
- Solubility (dissolution in solvent) ([2]; 20% aqueous ACN, 10 vol, 50° C.): ✓
- Solubility (dissolution in solvent) ([2]; Acetone, 5 vol, 50° C.): ✓
- Solubility (dissolution in solvent) ([2]; Acetone, 10 vol, 50° C.): ✓
- Solubility (dissolution in solvent) ([2]; Acetonitrile, 5 vol, 50° C.): x
- Solubility (dissolution in solvent) ([2]; Acetonitrile, 10 vol, 50° C.): x
- Solubility (dissolution in solvent) ([2]; Acetonitrile, 30 vol, 50° C.): ✓
- Solubility (dissolution in solvent) ([2]; Dichloromethane, 5 vol, 50° C.): x
- Solubility (dissolution in solvent) ([2]; Dichloromethane, 10 vol, 50° C.): x
- Solubility (dissolution in solvent) ([2]; Dichloromethane, 20 vol, 50° C.): x
- Solubility (dissolution in solvent) ([2]; Dichloromethane, 30 vol, 50° C.): x
- Solubility (dissolution in solvent) ([2]; Ethanol, 5 vol, 50° C.): x
- Solubility (dissolution in solvent) ([2]; Ethanol, 10 vol, 50° C.): ✓
- Solubility (dissolution in solvent) ([2]; Ethyl Acetate, 5 vol, 50° C.): x
- Solubility (dissolution in solvent) ([2]; Ethyl Acetate, 10 vol, 50° C.): x
- Solubility (dissolution in solvent) ([2]; Ethyl Acetate, 20 vol, 50° C.): ✓
- Solubility (dissolution in solvent) ([2]; Tetrahydrofuran, 5 vol, 50° C.): x
- Solubility (dissolution in solvent) ([2]; Tetrahydrofuran, 10 vol, 50° C.): x
- Solubility (dissolution in solvent) ([2]; Tetrahydrofuran, 20 vol, 50° C.): ✓
- Solubility (dissolution in solvent) ([2]; Water, 5 vol, 50° C.): x
- Solubility (dissolution in solvent) ([2]; Water, 10 vol, 50° C.): x
- Solubility (dissolution in solvent) ([2]; Water, 20 vol, 50° C.): x
- Solubility (dissolution in solvent) ([2]; Water, 30 vol, 50° C.): x
- Solubility (dissolution in solvent) ([2]; Water, 40 vol, 50° C.): x
- Solubility (dissolution in solvent) ([2]; Water, 50 vol, 50° C.): x
- Solubility (dissolution in solvent) ([2]; Water, 60 vol, 50° C.): x
- Solubility (dissolution in solvent) ([2]; n-Heptane, 5 vol, 50° C.): x
- Solubility (dissolution in solvent) ([2]; n-Heptane, 10 vol, 50° C.): x
- Solubility (dissolution in solvent) ([2]; n-Heptane, 20 vol, 50° C.): x
- Solubility (dissolution in solvent) ([2]; n-Heptane, 30 vol, 50° C.): x
- Solubility (dissolution in solvent) ([2]; n-Heptane, 40 vol, 50° C.): x
- Solubility (dissolution in solvent) ([2]; n-Heptane, 50 vol, 50° C.): x
- Solubility (dissolution in solvent) ([2]; n-Heptane, 60 vol, 50° C.): x
- Solubility (dissolution in solvent) ([2]; tert-Butylmethyl Ether, 5 vol, 50° C.): x
- Solubility (dissolution in solvent) ([2]; tert-Butylmethyl Ether, 10 vol, 50° C.): x
- Solubility (dissolution in solvent) ([2]; tert-Butylmethyl Ether, 20 vol, 50° C.): x
- Solubility (dissolution in solvent) ([2]; tert-Butylmethyl Ether, 30 vol, 50° C.): x
- Solubility (dissolution in solvent) ([2]; tert-Butylmethyl Ether, 40 vol, 50° C.): x
- Solubility (dissolution in solvent) ([2]; tert-Butylmethyl Ether, 50 vol, 50° C.): x
- Solubility (dissolution in solvent) ([2]; tert-Butylmethyl Ether, 60 vol, 50° C.): x
- Form produced by competitive suspension equilibration (thermodynamic stability) ([3]; TWEEN 80 (0.5 mg/ml) or TWEEN 20 (0.5 mg/ml)/SPAN 20 (0.05 mg/ml), 7 to 10 days): most thermodynamically stable form

Compound: C#CC(C)(C)NC(=O)c1cc(NC(=O)Cc2cc(Cl)ccc2O)ccn1 [Compound 36 Form D, 4-[[2-(5-Chloro-2-hydroxy-phenyl)acetyl]amino]-N-(1,1-dimethylprop-2-ynyl)pyridine-2-carboxamide]
- Storage at 40° C./75% RH (change of form by XRPD) ([1]; 7 days): converted to a mixture of Form A and Form B; also recorded: Changed to mainly

Compound: C#CC(C)(C)NC(=O)c1cc(NC(=O)Cc2cc(Cl)ccc2O)ccn1 [Compound 36 Form E, 4-[[2-(5-Chloro-2-hydroxy-phenyl)acetyl]amino]-N-(1,1-dimethylprop-2-ynyl)pyridine-2-carboxamide]
- Storage at 40° C./75% RH (change of form by XRPD) ([1]; 7 days): Changed to mainly

Compound: C#CC(C)(C)NC(=O)c1cc(NC(=O)Cc2cc(Cl)ccc2O)ccn1 [Compound 36 Form F, 4-[[2-(5-Chloro-2-hydroxy-phenyl)acetyl]amino]-N-(1,1-dimethylprop-2-ynyl)pyridine-2-carboxamide]
- Storage at 40° C./75% RH (change of form by XRPD) ([1]; 7 days): stable; also recorded: No change (7

Compound: C#CC(C)(C)NC(=O)c1cc(NC(=O)Cc2cc(Cl)ccc2O)ccn1 [Compound 36 Form G, 4-[[2-(5-Chloro-2-hydroxy-phenyl)acetyl]amino]-N-(1,1-dimethylprop-2-ynyl)pyridine-2-carboxamide]
- Storage at 40° C./75% RH (change of form by XRPD) ([1]; 7 days): Changed to Form A

Compound: C#CC(C)(C)NC(=O)c1cc(NC(=O)Cc2cc(Cl)ccc2O)ccn1 [Example 36, 4-[[2-(5-Chloro-2-hydroxy-phenyl)acetyl]amino]-N-(1,1-dimethylprop-2-ynyl)pyridine-2-carboxamide]
- Solubility (relative, in words) [4]: most soluble
- % Potentiation @ 3.33 μM Avg ([5]; 3.33 μM solution of test compound, percentage increase of baseline TMEM16A current): 199%
- EC50 ([5]; calculated EC50, Qpatch TMEM16A current at +70 mV): 20 nM
- Solubility (in words) ([2]; acetonitrile/water mixtures): freely soluble
- Solubility (dissolution in anti-solvents) ([2]; n-heptane, water and TBME, up to 60 volumes, 50° C.): no observable dissolution
- Form produced by competitive suspension equilibration (XRPD) ([3]; Tween/Span and Tween 80 buffers, 5 mg/ml, 13 days): consistent with Form A

From patent US20200361871A1 (Enterprise Therapeutics Ltd., priority 2018, published 2020)
